Experimental data taken from patent publication US6444644B1, “Anticoagulant peptide fragments derived from apolipoprotein B-100” (University College London, priority 1996, dated 2002).
No end group written: not given here.

Columns and labels:
thromboplastin [1] = target: T1, thromboplastin (Homo sapiens, UniProt P13726); test: Stability of the inhibitory effect of KRAD-14 following reconstitution; assay type: physicochemical
T1 construct: purchased Gamidor Ltd. (Oxfordshire, U.K.)
Experimental: However, KRAD-14 was effective at concentration as low as 50 nM. Moreover, the inhibition was unstable and completely disappeared after approximately 8 min following reconstitution. This deterioration was partially stabilised by adjusting the pH and addition of 5 nM bovine serum albumin as a stabiliser. However, the inhibitory effect deteriorated rapidly, completely disappearing after 15 min, following reconstitution.

thromboplastin [2] = target: T1, thromboplastin; test: Time-course inhibition of thromboplastin procoagulant activity (one-stage prothrombin time and two-stage amidolytic assay); assay type: biochemical; details: 500 nM, thromboplastin 100 nM (10 U/ml), 37° C.
Experimental: The one stage prothrombin time assay was carried out by the addition of 100 μl of the sample to 100 μl of 25 mM CaCl2 solution and incubation prior to addition of 100 μl of control plasma. The clotting time was measured on the coagulometer. The two-stage amidolytic assay was carried according to published procedures. In all cases the thromboplastin activity was calculated from a standard curve prepared previously and the percentage inhibition was calculated as 100×[…].
The apolipoprotein B-100 control peptide (fragment 3358-3372) containing the sequence TRLTRKRGLKLATAL was reconstituted in distilled water to 1 mM. The freeze-dried samples were reconstituted in distilled water to a concentration of 1 mM. Two 200 μl samples of thromboplastin (10 U/ml) were incubated with 500 nM KRAD-14 or apolipoprotein B-100 control peptide at 37° C. for 45 min. Another set of 200 μl samples of thromboplastin (10 U/ml) were incubated with either 500 nM KRAD-98 or the chloramphenicol acetyltransferase control protein. […] Following the incubation the thromboplastin activity in all the samples was measured by means of the one-stage prothrombin time assay and the two-stage amidolytic assay and the percentage inhibition calculated against the control containing distilled water.
The above experiments were repeated using 1 ml samples containing recombinant thromboplastin (10 U/ml) mixed with either 500 nM KRAD-14, 500 nM KRAD-98 or 500 nM apolipoprotein B-100, reconstituted as described before. The concentrations used are equivalent to that of apolipoprotein B-100 in normal plasma. 100 μl of the each sample was removed immediately and assayed for thromboplastin activity, by means of the one-stage prothrombin time assay. The rest of the samples were incubated at 37° C. and further 100 μl samples were removed at intervals up to 120 min and measured as before. The percentage inhibition was calculated against a control sample of thromboplastin.
Three 1 ml samples containing recombinant thromboplastin (10 U/ml) were mixed with 500 nM KRAD-14 (solid square), 500 nM KRAD-98 (open square) or 500 nM apolipoprotein […] (triangle), reconstituted as described before. The concentrations used are equivalent to that of apolipoprotein B-100 in normal plasma. 100 μl of the each sample was removed immediately and assayed for thromboplastin activity, by means of the one-stage prothrombin time assay. The rest of the samples were incubated at 37° C. and further 100 μl samples were removed at intervals up to 120 min and measured as before. The thromboplastin activity was calculated from a standard curve prepared previously and the percentage inhibition was calculated as 100×[…]. The curves are typical of data from four sets of experiments.

platelets = test: Activation of platelets by thrombin; assay type: cell-based
thrombin = thrombin (Homo sapiens, UniProt P00734); test: Influence on thrombin activity (amidolytic and clotting); assay type: biochemical; details: 500 nM peptide, thrombin 100 nM
Experimental: Samples (1 ml) of either KRAD-14 peptide (500 nM) or each of the control peptides (500 nM) were incubated with thrombin (100 nM) at 37° C. and the thrombin activity measured at the beginning and at intervals up to 60 min as follows. The enzymatic activity of thrombin was measured by the addition of 100 μl aliquots to 0.45 ml of thrombin substrate (N-benzoyl-phe-val-arg-p-nitroanilide) (0.26 mM) which was then incubated at 37° C. for exactly 10 min, before the addition of 0.45 ml of 20% (w/v) acetic acid. The absorption was measured at 405 nm against a thrombin (100 nM) control assayed similarly. The procoagulant activity of thrombin was measured by the addition of 100 μl of the sample to control plasma (100 μl) and 25 mM CaCl2 solution and measuring the clotting time. A thrombin 100 nM) control was included in the assay against which comparisons were made.

[3] = target: T2, thromboplastin, reconstituted in phosphatidylcholine (Homo sapiens, UniProt P13726); test: Inhibition of delipidated thromboplastin reconstituted in phosphatidylcholine; assay type: biochemical; details: 500 nM sample, 37° C., 30 min
T2 construct: purchased Gamidor Ltd. (Oxfordshire, U.K.)
Experimental: In other experiments, recombinant thromboplastin (1 mg/ml) was delipidated with chloroform/methanol as described previously, to remove phosphatidylserine and other lipids and reconstituted with phosphatidylcholine (1 mg/ml) to differentiate between the effects of the prepared samples on the protein moiety of thromboplastin and any effects on the thromboplastin-associated phosphatidylserine. […] The percentage inhibition was calculated against the control sample.
Recombinant thromboplastin was delipidated to remove phosphatidylserine and other lipids and reconstituted at 1 mg/ml with phosphatidylcholine (1 mg/ml). […] The % Inhibition was calculated against the control. The data were obtained from 3 separate experiments.

thromboplastin [4] = target: T1, thromboplastin; test: Inhibition of thromboplastin in the presence of plasma; assay type: biochemical
Experimental: […] The samples were then assayed by addition of 100 μl of […] CaCl2 solution and measurement on the coagulometer. The percentage inhibition in each case calculated against a similarly treated sample, containing thromboplastin only.

T1 sequence (P13726 33-295): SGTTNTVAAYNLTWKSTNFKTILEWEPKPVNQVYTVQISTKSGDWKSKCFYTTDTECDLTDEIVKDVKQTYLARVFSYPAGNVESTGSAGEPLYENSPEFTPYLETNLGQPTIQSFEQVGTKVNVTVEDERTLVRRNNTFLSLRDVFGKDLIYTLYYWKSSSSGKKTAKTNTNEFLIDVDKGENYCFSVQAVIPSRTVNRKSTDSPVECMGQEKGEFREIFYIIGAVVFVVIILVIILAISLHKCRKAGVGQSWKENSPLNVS
T2 sequence (P13726 33-295): as above

time after reconstitution at which the inhibition completely disappeared (thromboplastin [1]; no stabiliser): approximately 8 min
time after reconstitution at which the inhibitory effect completely disappeared (thromboplastin [1]; pH adjusted and 5 nM bovine serum albumin added as a stabiliser): 15 min
inhibition at 0.5 µM (thromboplastin [2]; 2 min incubation): 90%
inhibition at 0.5 µM (thromboplastin [2]; 4 min incubation (maximum)): 98%
effect on the amidolytic proteolytic activity of thrombin (thrombin): did not affect
effect on the clotting ability of thrombin (thrombin): did not affect
inhibition at 0.5 µM ([3]; against distilled water control): > 99%
% Inhibition ([3]; against distilled water control, listed as Recombinant KRAD-14 peptide): 99%
Procoagulant Activity ([3]; distilled water control 4.70 U/ml): (0.05 U/ml)
influence of plasma on the ability to inhibit thromboplastin activity (in words) (thromboplastin [4]; plasma included during the incubation prior to assaying, peptide 500 nM): did not significantly affect
inhibition of thromboplastin activity in the presence of plasma (thromboplastin [4]; plasma present, 37° C., 2 min incubation): 74%
Sequence: KAQSKKNKHRHSTT [KRAD-14]
effect on the activation of platelets by thrombin (platelets): seems to affect the activation of platelets by thrombin
